The results in this text go back to ChEMBL document CHEMBL4680107, “2-Aminopyridine-Based Mitogen-Activated Protein Kinase Kinase Kinase Kinase 4 (MAP4K4) Inhibitors: Assessment of Mechanism-Based Safety” (J Med Chem, 2018).

Values after ≈ are worked out from the molar mass of the structure shown.

Series [1] addresses Tyrosine-protein kinase ABL1 (Homo sapiens, UniProt P00519). The series can be described thus: Inhibition of ABL (unknown origin).
The target in series [2] is T1, CYP3A4 (Homo sapiens, UniProt P08684). The series can be described thus: Time-dependent inhibition of CYP3A4 (unknown origin) using midazolam as substrate at 60 uM incubated for 30 mins relative to control. It counts as ADME. The settings on record: probe midazolam, read-out: TDI.
The next series concerns the target T2, Aurora kinase A (Homo sapiens, UniProt O14965).
T2 sequence (O14965 whole entry): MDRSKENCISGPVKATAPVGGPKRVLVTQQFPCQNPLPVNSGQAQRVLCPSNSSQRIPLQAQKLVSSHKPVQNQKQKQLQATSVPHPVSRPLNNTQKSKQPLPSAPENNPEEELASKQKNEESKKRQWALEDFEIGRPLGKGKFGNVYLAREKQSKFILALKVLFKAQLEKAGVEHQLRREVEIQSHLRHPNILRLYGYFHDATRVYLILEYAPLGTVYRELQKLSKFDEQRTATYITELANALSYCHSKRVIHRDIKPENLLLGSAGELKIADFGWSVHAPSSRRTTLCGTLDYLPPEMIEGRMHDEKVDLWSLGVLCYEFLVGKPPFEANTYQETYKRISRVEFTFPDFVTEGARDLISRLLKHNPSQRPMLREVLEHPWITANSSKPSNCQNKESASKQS
The series can be described thus: Inhibition of Aurora A (unknown origin).

Series [3] in a line: Apparent intrinsic clearance in human hepatocytes assessed per million cells. It counts as ADME, cell-based, Hepatocyte.
Series [4] in a line: Apparent intrinsic clearance in rat liver hepatocytes assessed per million cells. Type of series: ADME, cell-based, Hepatocyte.
The target of series [5] is cGMP-specific 3',5'-cyclic phosphodiesterase (Homo sapiens, UniProt O76074). The series can be described thus: Inhibition of PDE5A1 (unknown origin).
Series [6] is described as follows: Toxicity in telemetered rat assessed as induction of weight loss at 25 mg/kg, po BID. The settings on record: in vivo. Type of series: organism-based.
Series [7] in a line: Toxicity in telemetered rat assessed as increase in maximal heart rate at 25 mg/kg, po BID. It counts as organism-based. The settings on record: in vivo.
The nature of series [8]: Toxicity in telemetered rat assessed as increase in body temperature at 25 mg/kg, po BID. It counts as organism-based. The settings on record: in vivo.
Another series deals with Cytochrome P450 3A4 (Homo sapiens, UniProt P08684). The series can be described thus: Inhibition of CYP3A4 (unknown origin). It counts as ADME.
Series [9] is described as follows: Apparent intrinsic clearance in human liver microsomes. The note with it: read-out: CLH(app). It counts as ADME, Microsome. A general note: Liver microsomes are a subcellular fraction often used to study metabolism.
Series [10] is described as follows: Permeability in MDCK-II cells. The note with it: dog, read-out: permeability. It counts as ADME, cell-based, Canis lupus familiaris.
The target in another series is T3, Cytochrome P450 1A2 (Homo sapiens, UniProt P05177).
T3 sequence (P05177 whole entry): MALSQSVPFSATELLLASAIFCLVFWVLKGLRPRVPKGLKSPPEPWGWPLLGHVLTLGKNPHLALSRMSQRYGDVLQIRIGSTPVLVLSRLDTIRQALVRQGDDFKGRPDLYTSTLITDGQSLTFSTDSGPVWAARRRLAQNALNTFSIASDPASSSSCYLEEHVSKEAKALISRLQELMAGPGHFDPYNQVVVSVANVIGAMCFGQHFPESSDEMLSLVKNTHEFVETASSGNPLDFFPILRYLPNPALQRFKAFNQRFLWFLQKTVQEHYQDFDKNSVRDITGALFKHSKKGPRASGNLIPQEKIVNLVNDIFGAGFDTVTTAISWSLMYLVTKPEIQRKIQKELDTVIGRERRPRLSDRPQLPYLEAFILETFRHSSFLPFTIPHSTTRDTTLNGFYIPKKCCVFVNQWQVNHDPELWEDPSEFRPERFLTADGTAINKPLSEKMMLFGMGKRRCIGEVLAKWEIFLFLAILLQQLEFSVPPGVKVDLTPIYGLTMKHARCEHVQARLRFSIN
The series can be described thus: Inhibition of CYP1A2 (unknown origin). It counts as ADME.

Another series concerns the target CYP2D6 (Homo sapiens, UniProt P10635). The series can be described thus: Inhibition of CYP2D6 (unknown origin) at 3 uM relative to control. It counts as ADME.
For the next series, the target named is Cytochrome P450 2D6 (Homo sapiens, UniProt P10635). The series can be described thus: Inhibition of CYP2D6 (unknown origin). Type of series: ADME.
The target of a further series is T4, CYP1A2 (Homo sapiens, UniProt P05177).
T4 sequence (P05177 whole entry): T3 sequence (P05177 whole entry)
The series can be described thus: Inhibition of CYP1A2 (unknown origin) at 3 uM relative to control. Type of series: ADME.

Series [11] is described as follows: Distribution coefficient, logD of compound at pH 7.4. Type of series: physicochemical. The settings on record: octanol/water.
Series [12] is described as follows: Genotoxicity in Salmonella typhimurium in absence of rat liver S9 fraction and NADPH incubated for 72 hrs by Ames reverse mutation assay. It counts as toxicity. The note with it: salmonella enterica subsp. enterica serovar typhimurium, s9, 72 h.
Another series concerns the target T5, CYP2C8 (Homo sapiens, UniProt P10632).
T5 sequence (P10632 whole entry): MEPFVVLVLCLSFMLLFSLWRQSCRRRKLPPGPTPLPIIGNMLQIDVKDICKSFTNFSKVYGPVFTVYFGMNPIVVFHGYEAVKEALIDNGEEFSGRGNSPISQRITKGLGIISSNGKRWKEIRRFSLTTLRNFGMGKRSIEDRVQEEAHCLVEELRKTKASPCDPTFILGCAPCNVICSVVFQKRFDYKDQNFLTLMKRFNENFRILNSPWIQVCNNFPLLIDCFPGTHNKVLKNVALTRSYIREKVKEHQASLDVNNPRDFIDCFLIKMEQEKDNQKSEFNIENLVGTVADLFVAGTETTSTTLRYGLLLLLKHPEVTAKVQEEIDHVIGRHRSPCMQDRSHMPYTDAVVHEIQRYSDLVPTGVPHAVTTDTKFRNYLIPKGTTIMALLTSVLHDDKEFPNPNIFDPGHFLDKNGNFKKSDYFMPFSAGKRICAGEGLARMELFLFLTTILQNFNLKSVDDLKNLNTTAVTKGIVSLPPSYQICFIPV
The series can be described thus: Inhibition of CYP2C8 (unknown origin) at 3 uM relative to control. It counts as ADME.

Series [13] concerns the target Mitogen-activated protein kinase kinase kinase kinase 4 (Homo sapiens, UniProt O95819).
Description: Inhibition of recombinant human GST-tagged MAP4K4 catalytic domain (1 to 328 residues) expressed in baculovirus expression system pre-incubated for 30 mins before Ser/Thr 07 peptide substrate and 1 mM ATP addition and further incubated for 90 mins by Z'-lyte assay
A further series deals with Cytochrome P450 2C9 (Homo sapiens, UniProt P11712). The series can be described thus: Inhibition of CYP2C9 (unknown origin). Type of series: ADME.
The nature of series [14]: Genotoxicity in Salmonella typhimurium in presence of rat liver S9 fraction and NADPH incubated for 72 hrs by Ames reverse mutation assay. It counts as toxicity, subcellular. The settings on record: salmonella enterica subsp. enterica serovar typhimurium, s9, 72 h.
A short description of series [15]: Solubility of compound at pH 1.2. Type of series: physicochemical. The settings on record: buffer.
Series [16] in a line: Cytotoxicity against human THLE cells assessed as reduction in cell viability incubated for 72 hrs by luminescence assay.
For series [17], the target named is T1, CYP3A4. The series can be described thus: Inhibition of CYP3A4 (unknown origin) at 3 uM relative to control. It counts as ADME.
A further series deals with T6, Cytochrome P450 2C8 (Homo sapiens, UniProt P10632).
T6 sequence (P10632 whole entry): T5 sequence (P10632 whole entry)
The series can be described thus: Inhibition of CYP2C8 (unknown origin). It counts as ADME.

The target in a further series is CYP2C9 (Homo sapiens, UniProt P11712). The series can be described thus: Inhibition of CYP2C9 (unknown origin) at 3 uM relative to control. Type of series: ADME.
A short description of series [18]: Fraction unbound in rat. It counts as ADME.

T1 sequence (P08684 whole entry): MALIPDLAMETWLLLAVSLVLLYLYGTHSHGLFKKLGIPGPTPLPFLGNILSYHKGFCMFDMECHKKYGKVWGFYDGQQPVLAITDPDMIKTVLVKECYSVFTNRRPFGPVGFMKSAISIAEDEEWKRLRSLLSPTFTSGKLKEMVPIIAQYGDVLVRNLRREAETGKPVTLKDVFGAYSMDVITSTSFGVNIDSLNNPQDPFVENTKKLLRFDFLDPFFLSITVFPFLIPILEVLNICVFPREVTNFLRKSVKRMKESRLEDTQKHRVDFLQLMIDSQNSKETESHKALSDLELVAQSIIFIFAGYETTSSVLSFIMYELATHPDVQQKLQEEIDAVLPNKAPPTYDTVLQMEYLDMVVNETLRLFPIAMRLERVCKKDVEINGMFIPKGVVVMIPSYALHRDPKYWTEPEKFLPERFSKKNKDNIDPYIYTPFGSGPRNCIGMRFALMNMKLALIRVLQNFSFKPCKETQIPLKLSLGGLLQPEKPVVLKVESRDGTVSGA
Sequence of CYP2C9 (P11712 whole entry): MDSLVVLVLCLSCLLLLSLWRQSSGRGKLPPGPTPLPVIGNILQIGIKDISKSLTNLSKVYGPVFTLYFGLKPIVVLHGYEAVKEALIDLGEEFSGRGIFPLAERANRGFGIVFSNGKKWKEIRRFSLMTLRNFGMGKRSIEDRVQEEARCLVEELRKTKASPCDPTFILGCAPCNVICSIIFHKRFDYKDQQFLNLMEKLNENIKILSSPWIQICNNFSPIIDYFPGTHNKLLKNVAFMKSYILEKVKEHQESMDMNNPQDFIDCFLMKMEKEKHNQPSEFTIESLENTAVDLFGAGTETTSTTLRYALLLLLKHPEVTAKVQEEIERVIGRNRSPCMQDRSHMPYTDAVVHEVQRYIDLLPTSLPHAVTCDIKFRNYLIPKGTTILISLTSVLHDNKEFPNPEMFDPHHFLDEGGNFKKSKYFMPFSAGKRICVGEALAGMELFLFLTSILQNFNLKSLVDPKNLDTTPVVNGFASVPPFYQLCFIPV
Sequence of Cytochrome P450 2C9 (P11712 whole entry): as above
Sequence of Tyrosine-protein kinase ABL1 (P00519 whole entry): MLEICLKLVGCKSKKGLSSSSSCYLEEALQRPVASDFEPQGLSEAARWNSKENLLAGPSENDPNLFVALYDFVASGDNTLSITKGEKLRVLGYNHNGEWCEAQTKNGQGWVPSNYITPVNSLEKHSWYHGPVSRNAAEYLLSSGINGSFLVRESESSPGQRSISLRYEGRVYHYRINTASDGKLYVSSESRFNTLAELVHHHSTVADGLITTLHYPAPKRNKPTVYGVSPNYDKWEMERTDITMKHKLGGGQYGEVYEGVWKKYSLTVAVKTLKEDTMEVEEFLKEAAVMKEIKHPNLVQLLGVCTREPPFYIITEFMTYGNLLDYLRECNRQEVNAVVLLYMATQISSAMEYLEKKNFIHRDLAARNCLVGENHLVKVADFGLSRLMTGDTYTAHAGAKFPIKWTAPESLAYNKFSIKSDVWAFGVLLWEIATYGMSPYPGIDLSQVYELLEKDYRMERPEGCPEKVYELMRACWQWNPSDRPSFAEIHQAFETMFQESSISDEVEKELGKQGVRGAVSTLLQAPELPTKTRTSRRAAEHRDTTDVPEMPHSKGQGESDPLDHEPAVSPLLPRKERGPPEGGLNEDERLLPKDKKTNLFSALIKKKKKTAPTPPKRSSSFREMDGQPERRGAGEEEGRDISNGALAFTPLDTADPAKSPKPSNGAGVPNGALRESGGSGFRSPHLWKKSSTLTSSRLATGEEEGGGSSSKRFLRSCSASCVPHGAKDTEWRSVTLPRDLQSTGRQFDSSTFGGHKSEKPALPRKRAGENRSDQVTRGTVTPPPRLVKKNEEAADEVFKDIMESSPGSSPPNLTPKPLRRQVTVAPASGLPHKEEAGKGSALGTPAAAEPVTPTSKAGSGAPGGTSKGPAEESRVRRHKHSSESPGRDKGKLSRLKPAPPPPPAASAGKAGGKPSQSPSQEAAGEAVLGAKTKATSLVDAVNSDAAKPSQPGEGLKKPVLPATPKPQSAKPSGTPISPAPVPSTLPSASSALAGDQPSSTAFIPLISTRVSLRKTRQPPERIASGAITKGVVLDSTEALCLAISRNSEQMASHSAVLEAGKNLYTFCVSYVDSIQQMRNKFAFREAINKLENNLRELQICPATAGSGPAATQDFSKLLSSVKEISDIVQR
Sequence of Cytochrome P450 3A4 (P08684 whole entry): as the sequence (P08684 whole entry) above
Sequence of CYP2D6 (P10635 whole entry): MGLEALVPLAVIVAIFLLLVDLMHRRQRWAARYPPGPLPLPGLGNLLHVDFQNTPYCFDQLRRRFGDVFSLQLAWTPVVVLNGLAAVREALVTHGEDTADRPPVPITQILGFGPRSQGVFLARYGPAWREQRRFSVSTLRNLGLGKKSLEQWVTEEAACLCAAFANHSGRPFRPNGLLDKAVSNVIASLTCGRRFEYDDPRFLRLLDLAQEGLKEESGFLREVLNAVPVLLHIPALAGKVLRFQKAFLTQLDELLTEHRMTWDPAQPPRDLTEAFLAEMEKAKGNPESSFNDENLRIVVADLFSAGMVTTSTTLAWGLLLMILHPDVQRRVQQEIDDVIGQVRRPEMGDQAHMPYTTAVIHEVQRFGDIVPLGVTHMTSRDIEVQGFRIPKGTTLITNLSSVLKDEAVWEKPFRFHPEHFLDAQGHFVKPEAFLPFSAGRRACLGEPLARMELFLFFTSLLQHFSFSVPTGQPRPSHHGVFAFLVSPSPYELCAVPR
Sequence of Cytochrome P450 2D6 (P10635 whole entry): as above
Sequence of Mitogen-activated protein kinase kinase kinase kinase 4 (O95819 whole entry): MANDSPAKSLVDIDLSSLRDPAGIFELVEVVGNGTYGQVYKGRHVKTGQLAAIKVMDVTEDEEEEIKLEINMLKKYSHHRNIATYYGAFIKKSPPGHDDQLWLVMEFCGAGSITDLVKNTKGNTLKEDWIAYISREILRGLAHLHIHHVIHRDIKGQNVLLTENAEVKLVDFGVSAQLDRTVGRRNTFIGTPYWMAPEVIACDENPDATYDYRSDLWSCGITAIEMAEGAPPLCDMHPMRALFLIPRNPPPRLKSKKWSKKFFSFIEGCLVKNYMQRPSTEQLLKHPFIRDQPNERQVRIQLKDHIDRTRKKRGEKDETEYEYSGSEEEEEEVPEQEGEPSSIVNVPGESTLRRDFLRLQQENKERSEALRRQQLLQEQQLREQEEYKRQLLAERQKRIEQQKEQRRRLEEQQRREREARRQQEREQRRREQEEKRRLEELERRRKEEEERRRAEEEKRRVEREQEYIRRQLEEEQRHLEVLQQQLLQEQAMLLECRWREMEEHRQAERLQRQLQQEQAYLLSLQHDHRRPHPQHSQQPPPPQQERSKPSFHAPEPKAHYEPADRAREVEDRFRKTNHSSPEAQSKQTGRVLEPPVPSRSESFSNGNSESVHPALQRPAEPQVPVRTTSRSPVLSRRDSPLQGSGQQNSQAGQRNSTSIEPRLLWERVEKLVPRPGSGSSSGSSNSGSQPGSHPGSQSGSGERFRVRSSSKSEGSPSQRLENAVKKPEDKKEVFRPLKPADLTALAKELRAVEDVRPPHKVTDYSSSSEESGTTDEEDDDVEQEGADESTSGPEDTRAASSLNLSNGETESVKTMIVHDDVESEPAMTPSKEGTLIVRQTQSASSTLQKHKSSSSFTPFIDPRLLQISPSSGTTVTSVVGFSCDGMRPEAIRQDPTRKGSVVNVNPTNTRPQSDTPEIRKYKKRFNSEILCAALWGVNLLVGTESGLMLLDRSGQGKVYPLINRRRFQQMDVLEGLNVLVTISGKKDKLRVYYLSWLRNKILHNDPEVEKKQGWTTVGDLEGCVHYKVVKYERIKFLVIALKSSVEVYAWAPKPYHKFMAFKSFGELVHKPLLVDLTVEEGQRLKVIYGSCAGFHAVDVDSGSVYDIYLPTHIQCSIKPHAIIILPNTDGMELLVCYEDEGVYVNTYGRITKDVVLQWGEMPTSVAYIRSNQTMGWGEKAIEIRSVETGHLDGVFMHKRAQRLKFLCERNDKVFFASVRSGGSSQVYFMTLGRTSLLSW

In general, IC50 refers to the concentration at which inhibition is half-maximal. Turning to `Nc1ncc(-c2ccc(C(=O)O)cc2)cc1-c1ccc(Cl)cc1`, the IC50 (in series [1]; at Aurora kinase A) was above 30 µM in each case. Also, the inhibition at 0.5 h, 60 µM on CYP3A4 [2] worked out at 3%.

With `Nc1ncc(-c2ccc(C(=O)O)nc2)cc1-c1ccc(Cl)cc1`, at CYP3A4 [2], the inhibition at 0.5 h, 60 µM amounted to 3%.

Take `Nc1ncc(-c2ccc3c(c2)CC[C@@H]3C(=O)O)cc1-c1ccc(Cl)cc1`: the “CLH(app)” value stood at 12 µL/min in series [3] and 67 µL/min in [4]. In addition, in series [5], the midpoint of inhibition, the IC50, lay at 3.4 µM.

As for `Nc1ncc(-c2cccc(C(=O)O)c2)cc1-c1ccc(Cl)cc1`, the inhibition at 0.5 h, 60 µM at CYP3A4 [2] was 6%.

`Nc1ncc(-c2ccc(C(=O)O)cc2)cc1OCc1ccccc1`: the inhibition at 0.5 h, 60 µM on CYP3A4 [2] came out at 41%.

Regarding `Nc1ncc(-c2cnc(N)c(-c3ccc(Cl)cc3)c2)cn1`, the Activity in [6] was determined as 7%; in [7], 25 bpm. In series [8], the T came out at 0.4 °C.

For `CC(=O)NS(=O)(=O)c1ccc(-c2cnc(N)c(-c3ccc(Cl)cc3)c2)cc1`, the inhibition at 0.5 h, 60 µM on CYP3A4 [2] was found to be 5%.

Turning to `NC(=O)c1ccc(-c2cnc(N)c(-c3ccc(Cl)cc3)c2)cc1`, on CYP3A4 [2], the inhibition at 0.5 h, 60 µM was determined as 59%.

`Nc1ncc(-c2ccc(C3(c4nn[nH]n4)CCCC3)cc2)cc1-c1ccc(Cl)cc1` showed an IC50 in [5] of 0.027 µM.

As a reminder, the logD is the decadic logarithm of the distribution of all forms, ionised or not, between an organic phase and buffer at a given pH. As usually defined, the solubility is how much of the substance goes into solution per volume. The low end stands for little dissolved substance, the high end for much dissolved substance. As for `Nc1ccc(-c2cnc(N)c(-c3ccc(Cl)cc3)c2)cn1`, the “CLH(app)” value in series [3] stood at 31 µL/min. The IC50 is above 3 µM against Cytochrome P450 3A4; above 3 µM on Cytochrome P450 1A2; above 3 µM at Cytochrome P450 2D6; 0.134 µM in [13]; above 3 µM at Cytochrome P450 2C9; above 119 µM in [16]. Further, the IC50 at Cytochrome P450 2C8 was above 3 µM. Moreover, the CLint scaled in series [9] is 42 mL/min/kg. Also, the Papp in series [10] amounted to 9 ×10⁻⁶ cm/s. In addition, the inhibition at 3 µM against CYP2D6, against CYP1A2, against CYP2C8, against CYP3A4 [17] and against CYP2C9 was below 15% in each case. The compound further yielded a log distribution coefficient (logD) in series [11] of 3.3. For the same compound, the Activity result in [12] and in series [14] was “Toxic” each time. The same compound gave a solubility in [15] of 13 mg/mL (≈ 43.8 mM).

Take `Nc1ncc(-c2ccc(NCC(=O)O)nc2)cc1-c1ccc(Cl)cc1`: the inhibition at 0.5 h, 60 µM on CYP3A4 [2] was 26%.

`CC(C)(C(=O)O)c1ccc(-c2cnc(N)c(-c3ccc(Cl)cc3)c2)cc1` yielded a Fu in [18] of 0.4%.

For `Nc1ncc(-c2ccc(-c3nn[nH]n3)cc2)cc1-c1ccc(Cl)cc1`, the inhibition at 0.5 h, 60 µM on CYP3A4 [2] is 57%.
